Laboratory results from PubChem BioAssay AID489041 (Sanford-Burnham Center for Chemical Genomics, 2010).
Calls of active or inactive are those of the source. How the calls were made is not given here. *1 amine or outer side, *2 acyl side, *3 side chain or, on linkers, in order; H or OH if unused. Where a SMILES comes first, the peptide text is derived from it. [ ]: non-standard residue; d: D form. X2 = CCC[C@@H](N[*:1])[C@H](C)C(=O)O[C@H](C(=O)[*:2])[C@@H](C)CC; X1 = CC(N[*:1])C(=O)C(C)(C)C(=O)[*:2]; NMeY = CN[C@@H](Cc1ccc(O)cc1)C(=O)O; NMeL = CN[C@@H](CC(C)C)C(=O)O; NMeV = CN[C@H](C(=O)O)C(C)C; NMeA = CN[C@@H](C)C(=O)O

System: HEK-293T NF-kB luciferase reporter counterscreen, luminescence
Experiment: NF-kB reporter inhibition in HEK-293T, dose response, counter-screen for T-cell antigen receptor NF-kB inhibitors, HEK-293T cells, luminescence (AID 489041)

Structure (SMILES): CC1(C)C[C@H]2C=C(C=O)[C@]3(C=O)C[C@]3(C)[C@H]2C1
- IC50: 31.1 µM (inactive)

Structure (SMILES): CNC[C@@H](CC1CCCCC1)NC[C@H](CC(C)C)NCCc1cccc(C(F)(F)F)c1
- IC50: 12.8 µM

Structure (SMILES): Cc1ccc(N/C(N)=N/c2nc(CSc3nnc(C)s3)cc(=O)[nH]2)c(C)c1
- IC50: 4.17 µM

Structure (SMILES): CCOc1ccccc1NC(=O)Cn1nnc(C(=O)NCc2cccs2)c1N
- IC50: 2.87 µM

Structure (SMILES): CCOc1ccc2c(c1)OC(c1ccc(OC)cc1)(C(F)(F)F)NC2=O (stereo not drawn)
- IC50: 9.2 µM

Structure (SMILES): COc1ccc(N/N=C/c2c(C(=O)O)ccc3ccccc23)cc1
- IC50: 15.8 µM

Structure (SMILES): O=C(Nc1ccc(Cc2ccncc2)cc1)c1ccc(S(=O)(=O)N2CCCC2)cc1
- IC50: 2.75 µM

Structure (SMILES): CC(=O)O[C@H]1C(=O)[C@@]2(C)[C@H]([C@H](OC(=O)c3ccccc3)[C@]3(O)C[C@H](OC(=O)[C@H](O)[C@@H](NC(=O)c4ccccc4)c4ccccc4)C(C)=C1C3(C)C)[C@]1(OC(C)=O)CO[C@@H]1C[C@@H]2O
- IC50: > 80 µM (inactive)

Structure (SMILES): O=C(N/N=C\c1c(O)ccc2ccccc12)c1ccc(S(=O)(=O)N2CCCCC2)cc1
- IC50: > 80 µM (inactive)

Structure (SMILES): CCC[C@H]1NC(=O)[C@H](C)N(C)C(=O)C(C)(C)C(=O)C(C)NC(=O)[C@H](Cc2ccc(OC)cc2)N(C)C(=O)[C@H](C(C)C)N(C)C(=O)CNC(=O)[C@H](CC(C)C)N(C)C(=O)CNC(=O)[C@H]([C@@H](C)CC)OC(=O)[C@H]1C (stereo partly drawn) (cyclo(G[NMeL]G[NMeV][NMeY](Me)[X1][NMeA][X2]))
- IC50: 46.7 µM (inactive)

Structure (SMILES): Cc1cc(C)cc(NC(=O)c2cc(C)n(Cc3cccs3)c2C)c1
- IC50: > 80 µM (inactive)

Structure (SMILES): CCO[C@H]1OC(C(=O)NCc2nc3ccccc3[nH]2)=C[C@@H](C2CC2)[C@@H]1CCCO
- IC50: 41.1 µM (inactive)

Structure (SMILES): COc1cc(-c2noc(C)c2-c2ccc(N(C)C)nc2)cc(OC)c1OC
- IC50: 1.94 µM

Structure (SMILES): O=C1C=CCC(/C=C/c2ccccc2)O1 (stereo not drawn)
- IC50: 22.2 µM (inactive)

Structure (SMILES): COc1ccc(-n2cc(-c3ccc(C)cc3)[n+]3c2SCC3)cc1
- IC50: 5.82 µM

Structure (SMILES): COc1ccc(N(C(=O)c2ccccc2C)S(=O)(=O)c2cccs2)cc1
- IC50: > 80 µM (inactive)

Structure (SMILES): CCOC(=O)c1[nH]c(C)c(C(=O)OCC(=O)NC(C)c2ccc(F)cc2)c1C (stereo not drawn)
- IC50: > 80 µM (inactive)

Structure (SMILES): Cc1ccc2c(c1)COc1c3ccc(C(=O)O)cc3nn1-2
- IC50: 12.9 µM

Structure (SMILES): COc1ccc(NS(=O)(=O)c2cc(-c3cnc(C4CC4)o3)ccc2C)cc1
- IC50: 9.37 µM

Structure (SMILES): Nc1nc2n[nH]nc2c(=O)[nH]1
- IC50: > 80 µM (inactive)

Structure (SMILES): Cn1ncc2c(N3CCN(c4ccc(Cl)c(Cl)c4)CC3)ncnc21
- IC50: 1.29 µM

Structure (SMILES): CC1C/C(=C/c2ccncc2)C(=O)/C(=C/c2ccncc2)C1 (stereo not drawn)
- IC50: 5.7 µM

Structure (SMILES): N=c1ccn(CC(=O)c2ccc(-c3ccccc3)cc2)cc1
- IC50: 5.16 µM

Structure (SMILES): COc1cccc(N2CCN(C(=O)c3cn(Cc4ccccc4)nc3-c3cccnc3)CC2)c1
- IC50: 16.4 µM

Structure (SMILES): Cc1ccc(/C=C/c2ccc(N(C)C)cc2)[n+](C)c1
- IC50: 2.7 µM

Structure (SMILES): COc1ccc([C@H]2CC(=O)C=C(c3ccc(OC)cc3OC)C2)cc1
- IC50: 9.99 µM

Structure (SMILES): CCc1ccc(N2C(=O)C(Cl)=C(Nc3ccc(C(=O)N4CCCC4)cc3)C2=O)cc1
- IC50: 66.9 µM (inactive)

Structure (SMILES): Cc1cc(-c2ccc(C(C)C)c(S(=O)(=O)N3CCN(c4ccccc4)CC3)c2)on1
- IC50: 22 µM (inactive)

Structure (SMILES): CCCCOc1ccccc1C1CC(=O)NC2=C1C(=O)CCC2 (stereo not drawn)
- IC50: 12.8 µM

Structure (SMILES): COc1cc(C2c3cc4c(cc3C(OC3OC5COC(c6cccs6)OC5C(O)C3O)C3COC(=O)C23)OCO4)cc(OC)c1O (stereo not drawn)
- IC50: > 80 µM (inactive)

Structure (SMILES): CC#CC(=O)N1CCC(n2nccc2NC(=O)c2ccc3c(c2)OCO3)CC1
- IC50: > 80 µM (inactive)

Structure (SMILES): CC1(C)Cc2nc3sc4c(=O)n(CC(=O)NCc5ccccc5)cnc4c3cc2CO1
- IC50: > 80 µM (inactive)

Structure (SMILES): CCn1c(C)cc(C(=O)CN2C(=O)c3ccccc3S2(=O)=O)c1C
- IC50: 5.36 µM

Structure (SMILES): CCCCCCCCn1c2c(c(=N)c3c1CCC3)CCCC2
- IC50: 1.43 µM

Structure (SMILES): Cc1cc(-n2c(C)cc(C(=O)CSc3ncnc4ccccc34)c2C)no1
- IC50: 3 µM

Structure (SMILES): CCOc1ccc(N/C(N)=N/c2nc(CSc3nnc(C)s3)cc(=O)[nH]2)cc1
- IC50: 29.9 µM (inactive)

Structure (SMILES): Cc1c(C(=O)N/N=C/c2ccc(Cl)cc2)[nH]c2ccc(Cl)cc12
- IC50: 1.95 µM

Structure (SMILES): O=S(=O)(c1ccc2c(c1)OCCO2)N1CCN(c2ncnc3sccc23)CC1
- IC50: 2.44 µM

Structure (SMILES): COc1ccccc1N1CCN(C(=O)c2cc(=O)c3cc(C)cc(C)c3o2)CC1
- IC50: 76 µM (inactive)

Structure (SMILES): CCOC(=O)Nc1nc(-c2ccccc2)c(C(=O)c2ccc(Cl)cc2)s1
- IC50: 3.06 µM

Structure (SMILES): COc1ccc(S(=O)(=O)Nc2cccc(-c3ccc4nncn4n3)c2)cc1F
- IC50: 49.2 µM (inactive)

Structure (SMILES): COc1ccc(NC(=O)Cn2nnc(-c3ccccc3NS(=O)(=O)c3ccc(OC)cc3)n2)cc1
- IC50: 13.6 µM

Structure (SMILES): O=C(c1ccc(CS(=O)c2ccccc2Cl)o1)N1CCN(c2ccccn2)CC1 (stereo not drawn)
- IC50: 18.8 µM

Structure (SMILES): Cc1nc(NCc2ccco2)c2c(C)c(C)sc2n1
- IC50: 1.82 µM

Structure (SMILES): C=CCn1c(SCc2c(C)noc2C)nc2ccccc2c1=O
- IC50: 2.82 µM

Structure (SMILES): Oc1ccc2ccccc2c1N=Nc1ccccn1
- IC50: > 80 µM (inactive)

Structure (SMILES): COc1ccc(S(=O)(=O)N2N=C(C)Oc3ccccc3C2=O)cc1
- IC50: 29.9 µM (inactive)

Structure (SMILES): O=C(NN=Cc1c(O)ccc2ccccc12)c1ccc2c(c1)OCO2
- IC50: 0.74 µM

Structure (SMILES): CCC1CCCCN1C(=O)c1cc(COc2ccc3ncccc3c2)on1 (stereo not drawn)
- IC50: 2.44 µM

Structure (SMILES): COC(=O)c1cnc(Oc2ccc(NC(=O)NC(=O)c3c(F)cccc3Cl)cc2)cc1C(F)(F)F
- IC50: 25.8 µM (inactive)

Structure (SMILES): COc1cc(-c2c(-c3cc(OC)c(OC)c(OC)c3)noc2C)ccc1F
- IC50: 0.72 µM

Structure (SMILES): COc1cc(Cn2c(-c3nonc3N)nc3ccccc32)ccc1C
- IC50: 1.08 µM

Structure (SMILES): Cc1cc(NC(=O)CSc2nc3ccccc3c(=O)n2C2CCCC2)no1
- IC50: 19.1 µM
